# Experimental data from patent US12679851B2, “Methyl-substituted benzobisoxazole compound and use thereof” (TONGHUA DONGBAO PHARMACEUTICAL CO., LTD., priority 2020, dated 2026).
# Assays:
# CYP2C9 = target: T1, CYP2C9 (Homo sapiens, UniProt P11712); assay: Cytochrome P450 isoenzyme inhibition, human liver microsomes; format: in vitro ADME
# T1 construct: from tissue; host or cells: human liver microsomes
# Method: (§1) To test the inhibitory effects of the test compounds on the activities of human liver microsomal cytochrome P450 isoenzymes (CYP1A2, CYP2C9, CYP2C19, CYP2D6 and CYP3A4).
# (§2) Firstly, the test compound (10.0 mM) was diluted in gradient to prepare a working solution (100× final concentration), and the working solution concentrations were 5.00, 1.50, 0.500, 0.150, 0.0500, 0.0150 and 0.00500 mM respectively. At the same time, the working solution of each positive inhibitor and its specific substrate mixture of P450 isoenzymes (CYP1A2, CYP2C9, CYP2C19, CYP2D6 and CYP3A4) was prepared; the human liver microsomes stored in the refrigerator below −60° C. were thawed on ice. When the human liver microsomes were completely dissolved, then diluted with potassium phosphate buffer (PB) to prepare a working solution with a certain concentration (0.253 mg/mL).
# (§3) Firstly, 20.0 μL of substrate mixture was added to the reaction plate (20.0 μL of PB was added to the blank well), then 158 μL of human liver microsome working solution was added to the reaction plate, and the reaction plate was placed on ice for later use. At this time, 2.00 μL of test compound (N=1) and specific inhibitor (N=2) of each concentration were added to the corresponding well, and the group without inhibitor (test compound or positive inhibitor) was added with the corresponding organic solvent as a of control sample (control sample of test compound was dimethyl sulfoxide:methanol=1:1, positive control samples were all dimethyl sulfoxide:methanol=1:9). After pre-incubation in 37° C. water bath for 10 minutes, 20.0 μL of a coenzyme factor (NADPH) solution was added to the reaction plate and incubated in 37° C. water bath for 10 minutes. Then 400 μL of pre-cooled acetonitrile solution (internal standard containing 200 ng/mL tolbutamide and labetalol) was added to stop the reaction; the reaction plate was placed in a shaker and shaken for 10 min to mix evenly. Then the reaction plate was centrifuged at 4° C. and 4000 rpm for 20 min. 200 μL of supernatant was taken and added to 100 μL of water for sample dilution. Finally, the plate was sealed, shaken for 10 minutes to mix evenly for LC/MS/MS detection.
# CYP3A4 = target: T2, CYP3A4 (Homo sapiens, UniProt P08684); assay: as above; format: in vitro ADME; conditions: CYP3A4-M
# T2 construct: from tissue; host or cells: human liver microsomes
# T2 sequence (P08684 whole entry): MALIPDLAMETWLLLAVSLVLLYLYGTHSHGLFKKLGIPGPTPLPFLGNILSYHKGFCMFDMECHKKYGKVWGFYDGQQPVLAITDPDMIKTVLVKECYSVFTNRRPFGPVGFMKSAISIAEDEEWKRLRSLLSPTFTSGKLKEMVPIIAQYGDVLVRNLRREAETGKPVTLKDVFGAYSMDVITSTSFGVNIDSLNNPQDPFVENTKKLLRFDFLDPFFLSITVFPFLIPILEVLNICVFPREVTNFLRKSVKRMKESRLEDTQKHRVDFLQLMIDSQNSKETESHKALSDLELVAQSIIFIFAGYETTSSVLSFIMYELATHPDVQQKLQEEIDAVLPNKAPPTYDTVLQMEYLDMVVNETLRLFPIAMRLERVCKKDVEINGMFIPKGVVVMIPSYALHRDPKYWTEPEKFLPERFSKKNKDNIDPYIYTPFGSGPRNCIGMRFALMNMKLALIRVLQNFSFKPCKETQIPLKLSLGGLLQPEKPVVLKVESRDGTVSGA
# Method: as §1, §2, §3
# CYP2D6 = target: T3, CYP2D6 (Homo sapiens, UniProt P10635); assay: as above; format: in vitro ADME
# T3 construct: from tissue; host or cells: human liver microsomes
# T3 sequence (P10635 whole entry): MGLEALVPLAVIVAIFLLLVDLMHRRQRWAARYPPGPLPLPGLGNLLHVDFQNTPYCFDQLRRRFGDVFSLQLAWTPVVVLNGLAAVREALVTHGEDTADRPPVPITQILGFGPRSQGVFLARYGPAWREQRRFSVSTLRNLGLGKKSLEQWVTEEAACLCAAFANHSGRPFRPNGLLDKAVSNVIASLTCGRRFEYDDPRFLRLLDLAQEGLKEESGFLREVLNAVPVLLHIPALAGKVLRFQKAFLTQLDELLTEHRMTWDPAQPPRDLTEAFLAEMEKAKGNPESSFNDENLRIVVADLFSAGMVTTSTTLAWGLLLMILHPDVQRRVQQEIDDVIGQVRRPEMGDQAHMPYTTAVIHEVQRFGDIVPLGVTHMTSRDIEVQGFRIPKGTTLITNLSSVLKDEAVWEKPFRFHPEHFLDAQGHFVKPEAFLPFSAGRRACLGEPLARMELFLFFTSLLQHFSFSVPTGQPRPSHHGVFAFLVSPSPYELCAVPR
# Method: as §1, §2, §3
# CYP1A2 = target: T4, CYP1A2 (Homo sapiens, UniProt P05177); assay: as above; format: in vitro ADME
# T4 construct: from tissue; host or cells: human liver microsomes
# T4 sequence (P05177 1-516): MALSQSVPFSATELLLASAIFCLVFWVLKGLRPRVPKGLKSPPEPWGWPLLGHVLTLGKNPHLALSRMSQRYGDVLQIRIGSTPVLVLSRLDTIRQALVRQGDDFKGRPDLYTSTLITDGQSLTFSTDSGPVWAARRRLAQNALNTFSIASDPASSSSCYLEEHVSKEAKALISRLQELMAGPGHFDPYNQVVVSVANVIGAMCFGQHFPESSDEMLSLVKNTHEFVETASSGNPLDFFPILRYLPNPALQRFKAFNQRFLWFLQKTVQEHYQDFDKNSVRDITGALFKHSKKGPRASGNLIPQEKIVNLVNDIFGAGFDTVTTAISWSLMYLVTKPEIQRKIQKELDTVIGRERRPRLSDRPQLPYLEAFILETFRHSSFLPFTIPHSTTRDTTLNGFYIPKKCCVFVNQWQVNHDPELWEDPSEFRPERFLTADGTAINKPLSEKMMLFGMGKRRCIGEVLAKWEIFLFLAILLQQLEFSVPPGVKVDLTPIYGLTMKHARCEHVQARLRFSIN
# Method: as §1, §2, §3
# CYP2C19 [1] = target: T5, CYP2C19 (Homo sapiens, UniProt P33261); assay: as above; format: in vitro ADME
# T5 construct: human liver microsomes (HLM) were used as the incubation system; from tissue; host or cells: human liver microsomes
# T5 sequence (P33261 whole entry): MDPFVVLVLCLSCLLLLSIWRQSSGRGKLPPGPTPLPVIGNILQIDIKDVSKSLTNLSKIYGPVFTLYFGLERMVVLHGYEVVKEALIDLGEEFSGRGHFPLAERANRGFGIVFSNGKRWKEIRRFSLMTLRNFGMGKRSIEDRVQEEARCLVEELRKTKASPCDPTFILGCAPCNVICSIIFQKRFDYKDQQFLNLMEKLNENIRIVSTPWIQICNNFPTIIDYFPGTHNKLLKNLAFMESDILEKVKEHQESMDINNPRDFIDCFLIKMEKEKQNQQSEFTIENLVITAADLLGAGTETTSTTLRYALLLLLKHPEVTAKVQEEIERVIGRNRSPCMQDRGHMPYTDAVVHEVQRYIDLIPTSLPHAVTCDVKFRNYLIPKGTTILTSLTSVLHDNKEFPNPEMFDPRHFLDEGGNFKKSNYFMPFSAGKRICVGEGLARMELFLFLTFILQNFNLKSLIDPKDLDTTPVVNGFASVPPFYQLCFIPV
# Method: as §1, §2, §3
# [2] = Cynomolgus monkey in vivo DMPK study; conditions: male cynomolgus monkeys, single oral 0.5 mg/kg
# Method: Male cynomolgus monkeys were used as test animals, and the plasma concentration of the compound was determined after a single oral administration and the pharmacokinetic behavior was evaluated.
# Two healthy male cynomolgus monkeys (fasting) were selected as the oral group. Oral vehicle was 20% hydroxypropyl-p-cyclodextrin aqueous solution. After the test compound was mixed with the vehicle, vortexed and sonicated to prepare 0.1 mg/mL approximately clear solution. The oral dosage of cynomolgus monkey was 0.5 mg/kg. After oral administration, whole blood was collected for a certain time to prepare plasma. The drug concentration was analyzed by LC-MS/MS method, and the pharmacokinetic parameters were calculated by Phoenix WinNonlin 6.3.
# GLP-1 receptor = GLP-1 receptor (Homo sapiens, UniProt P43220); assay: Cell activity test in vitro (cAMP detection, GLP-1 HEK293 cells); format: cell-based; conditions: HEK293 host cell
# GLP-1 receptor, sequence (P43220 24-463): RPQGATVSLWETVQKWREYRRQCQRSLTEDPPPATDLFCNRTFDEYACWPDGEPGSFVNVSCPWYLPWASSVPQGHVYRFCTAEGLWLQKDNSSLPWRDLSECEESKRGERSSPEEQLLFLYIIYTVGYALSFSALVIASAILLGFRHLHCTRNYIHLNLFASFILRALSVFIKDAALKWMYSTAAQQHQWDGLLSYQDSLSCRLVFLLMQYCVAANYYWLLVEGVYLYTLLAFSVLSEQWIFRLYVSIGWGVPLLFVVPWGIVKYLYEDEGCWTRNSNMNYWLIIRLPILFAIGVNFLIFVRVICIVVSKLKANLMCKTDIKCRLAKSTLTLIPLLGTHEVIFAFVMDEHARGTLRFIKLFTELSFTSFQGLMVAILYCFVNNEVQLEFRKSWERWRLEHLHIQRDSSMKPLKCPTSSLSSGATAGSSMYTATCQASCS
# Method: The cells were constructed by Wuxi New Drug Development Co., Ltd. Shanghai.
# The compound was formulated with DMSO to a working concentration of 30 μM. In this test, the usage amount of each sample was 5 μL.
# The pH was adjusted to 7.4 and the volume was fixed to 25 mL with HBSS 1×.
# Preparation of cAMP detection reagent: 250 μL of cAMP-D2 and 250 μL of anti-cAMP cryptate reagent were added to 4 mL of lysis buffer, and mixed gently.
# The test compound was diluted 3 times by 10 points with a starting concentration of 30 μM, and the dilutions were completed by Bravo.
# The reference compound exenatide was diluted 3 times by 10 points with a starting concentration of 500 nM, and the dilutions were completed by Bravo.
# • 1) 100 nL of compound was transferred to OptiPlate-384 plate using Echo. • 2) OptiPlate-384 plate was centrifuged at 1000 rpm for 5 seconds. c) Preparation of cell suspension • 1) A GLP-1 cell cryopreservation tube was quickly thawed in 37° C. warm water. • 2) The cell suspension was transferred to a Transfer 15 mL of centrifuge tube and gently rinsed with 10 mL of HBSS. • 3) The centrifuge tube was centrifuged at 1000 rpm at room temperature for 1 minute. • 4) The supernatant was discarded. • 5) The cells at the bottom were gently dispersed and gently rinsed with 10 mL of HBSS, then the cells were centrifuged for sedimentation, and finally the cells were re-suspended in experimental buffer. • 6) Cell density and activity were measured by using Vi-cell. • 7) The concentration of GLP-1 cells was diluted to 2.0*10^5/mL with the experimental buffer. • 8) […] of diluted cell suspension was transferred into OptiPlate-384 plate. • 9) The cells were incubated at room temperature for 30 minutes. d) Addition of detection reagents: • 1) 10 μL of 800 nM gradient diluted cAMP standard was added to the empty well of OptiPlate-384 plate. • 2) 10 μL of cAMP detection reagent was added. • 3) OptiPlate-384 plate was covered with TopSeal-A film and incubated for 60 min at room temperature.
# The TopSeal-A was removed, and the EnVision reading was performed.
# CYP2C19 [3] = target: T5, CYP2C19; assay: Cytochrome P450 isoenzyme time-dependent inhibition, human liver microsomes; format: in vitro ADME
# Method: To test the time-dependent inhibitory effect of the test compounds on the activity of human liver microsomal cytochrome P450 isoenzyme CYP2C19.
# The experiment was divided into two groups. In the first group, human liver microsomes (HLM) were used as the incubation system, and a series of concentrations of test samples were added to the incubation system, and then coenzyme factor (NADPH) solution was added, and pre-incubated at 37° C. for 30 minutes. After pre-incubation, the probe substrate solution was added, and after incubation for a certain time, the reaction was terminated; the amount of probe substrate metabolites produced in the incubation solution was measured, and the enzyme activity was calculated. The second group of reactions was to use human liver microsomes (HLM) as the incubation system, and a series of concentrations of test samples were added to the incubation system, and then potassium phosphate buffer was added, and pre-incubated at 37° C. for 30 minutes. After pre-incubation, a mixed solution of NADPH and probe substrate was added. After incubation for a certain time, the reaction was terminated, the amount of probe substrate metabolites produced in the incubation solution was measured, and the enzyme activity was calculated.
# Firstly, the test compound (10.0 mM) was diluted in gradient to prepare a working solution (100× final concentration), and the working solution concentrations were 5.00, 1.65, 0.500, 0.165, 0.0500, 0.0165 and 0.00500 mM respectively. At the same time, the positive inhibitor of P450 isoenzyme CYP2C19, probe substrate and NADPH working solution were prepared; the human liver microsomes stored in the refrigerator below −60° C. were thawed on ice. When the human liver microsomes were completely dissolved, then diluted with potassium phosphate buffer (PB) to prepare a working solution with a certain concentration (0.169 mg/mL).
# Then 147.5 μL of human liver microsome working solution was added to the reaction plate, and the reaction plate was placed on ice for use. […]
# T1 sequence (P11712 whole entry): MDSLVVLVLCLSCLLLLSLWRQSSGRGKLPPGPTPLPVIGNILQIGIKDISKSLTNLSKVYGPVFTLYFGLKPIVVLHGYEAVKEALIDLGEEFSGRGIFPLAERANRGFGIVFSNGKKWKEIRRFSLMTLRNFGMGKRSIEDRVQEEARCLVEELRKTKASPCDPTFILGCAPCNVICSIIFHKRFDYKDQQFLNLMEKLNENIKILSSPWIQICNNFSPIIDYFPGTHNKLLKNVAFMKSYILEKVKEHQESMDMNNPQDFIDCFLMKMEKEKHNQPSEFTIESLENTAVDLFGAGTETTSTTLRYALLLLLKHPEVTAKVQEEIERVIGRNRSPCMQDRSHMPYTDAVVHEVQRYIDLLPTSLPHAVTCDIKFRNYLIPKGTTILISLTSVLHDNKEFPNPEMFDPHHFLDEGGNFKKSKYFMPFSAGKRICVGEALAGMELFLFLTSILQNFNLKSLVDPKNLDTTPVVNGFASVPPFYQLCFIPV
SMILES,IC50 (CYP2C9),IC50 (CYP3A4),IC50 (CYP2D6),IC50 (CYP1A2),IC50 (CYP2C19 [1]),"half-life ([2]; cynomolgus monkey, plasma)","Cmax ([2]; cynomolgus monkey, plasma)",Oral DNAUC ([2]; DNAUC = AUCPO/Dose),EC50 (GLP-1 receptor),Time-dependent inhibition (Yes or No) (CYP2C19 [3]),IC50 (CYP2C19 [3]; 30 min pre-incubation with NADPH),IC50 (CYP2C19 [3]; 30 min pre-incubation without NADPH)
C[C@]1(c2ccc(C#N)cc2F)Oc2cccc(C3=CCN(Cc4nc5cc(C(=O)O)sc5n4C[C@@H]4CCO4)CC3)c2O1 [Compound 011B],,,,,,,,,0.00152 µM,,,
"CC1(c2ccc(Cl)cc2F)Oc2cccc(C3CCN(Cc4nc5sc(C(=O)O)c(F)c5n4C[C@@H]4CCO4)CC3)c2O1 (single isomer, unassigned) [Compound 006]",21.6 µM,48.7 µM,> 50 µM,38.8 µM,> 50 µM,,,,0.00039 µM,,,
C[C@]1(c2ccc(C#N)cc2F)Oc2cccc(C3=CCN(Cc4nc5sc(C(=O)O)cc5n4C[C@@H]4CCO4)CC3)c2O1 [Compound 011A],,,,,,,,,0.00033 µM,,,

# Compounds with a lower EC50 (GLP-1 receptor), results first:
IC50 (CYP2C9),IC50 (CYP3A4),IC50 (CYP2D6),IC50 (CYP1A2),IC50 (CYP2C19 [1]),"half-life ([2]; cynomolgus monkey, plasma)","Cmax ([2]; cynomolgus monkey, plasma)",Oral DNAUC ([2]; DNAUC = AUCPO/Dose),EC50 (GLP-1 receptor),Time-dependent inhibition (Yes or No) (CYP2C19 [3]),IC50 (CYP2C19 [3]; 30 min pre-incubation with NADPH),IC50 (CYP2C19 [3]; 30 min pre-incubation without NADPH),SMILES
31.9 µM,40.8 µM,> 50 µM,43.7 µM,23.6 µM,3.94 h,0.132 µM,1056 nM · h/mpk,0.0002 µM,,,,"CC1(c2ccc(Cl)cc2F)Oc2cccc(C3CCN(Cc4nc5sc(C(=O)O)cc5n4C[C@@H]4CCO4)CC3)c2O1 (single isomer, unassigned) [Compound 004]"
30.8 µM,> 50 µM,> 50 µM,> 50 µM,> 50 µM,,,,0.00015 µM,No,> 50 µM,44.3 µM,"CC1(c2ccc(Cl)cc2F)Oc2cccc(N3CCN(Cc4nc5sc(C(=O)O)cc5n4CC4CCO4)CC3)c2O1 (single isomer, unassigned) [Compound 005A]"
